From ChEMBL document CHEMBL5727017, “N-arylmethyl sulfonamide negative modulators of NR2A” (2018)

Test: Biological Assay: Cell Culture and plating: HEK293 cells expressing NR1/NR2A (Chantest, Cleveland, Ohio) were grown to 70-80% confluency as an adherent monolayer in standard tissue culture flasks at 37° C., 5% CO2 per supplier's instructions. NR2A expression was induced by incubation with 0.3-0.4 μg/ml tetracycline in the presence of 4 mM ARL-15896 for 18-24 hours under the same growth conditions, then transferred to 30° C. for another 3-5 hours.After induction, cell culture medium was removed and cells were rinsed once with Ca2+ and Mg2+-free Dulbecco's phosphate buffered saline. Cells were then removed from the flask using TrypLE Express (Life Technologies) according to the manufacturer's instructions and collected to 50 ml centrifuge tubes. Following two washes in Ca2+/Mg2+-free HBSS with 20 mM HEPES (HHnoCa), cells were counted and viability assessed using trypan blue. To load cells with Ca2+-sensitive dye, they were resuspended in fluo-8 plus Component B (AAT Bioquest Products) diluted in HHnoCa and incubated 15 minutes at 37° C., followed by 30 minutes at room temp (in dark). Cells were then washed and resuspended in HHnoCa to remove extracellular dye and plated in 384-well plates (Falcon, uncoated) at 20,000-30,000 cells/well in a final volume of 25 μL/well.

`Cc1ncc(CNC(=O)c2ccc(CNS(=O)(=O)c3c(C)noc3C)cn2)s1` showed an IC50 of 10 µM.
